Values quoted from earlier work as cited in EP2583674A2, “ACECLOFENAC SLOW-RELEASE PREPARATION PROVIDING AN OPTIMUM PHARMACOLOGICAL CLINICAL EFFECT WHEN ADMINISTERED ONCE A DAY” (Korea United Pharm, Inc., priority 2010, dated 2011).

[1] = aceclofenac and the metabolites thereof

O=C(O)COC(=O)Cc1ccccc1Nc1c(Cl)cccc1Cl [aceclofenac, 2-[(2,6-dichlorophenyl)amino]-phenylacetoxyacetic acid]
excreted through stool [1]: approximately 20%
excreted through urine [1]: approximately 70%
excretion rate (half-life) (in vivo): approximately 4 hours
duration (orally administered): approximately 12 hours
onset time (orally administered): ≤ 30 min
